± gives the expanded uncertainty stated by the source.
Assay: xn = mol fraction of the nth substance listed
Settings: 100 kPa, Liquid; for mass density: Vibrating tube method; for viscosity: Falling or rolling sphere viscometry

CCCCCCCCCCC [undecane] + CCCO
Settings | mass density [kg/m3] | viscosity [mPa·s]
323.15 K, x1 = 0.1003 | 762.28 ± 1.5 | –
323.15 K, x1 = 0.2009 | 750.73 ± 1.5 | –
323.15 K, x1 = 0.3004 | 742.26 ± 1.5 | –
323.15 K, x1 = 0.3997 | 735.82 ± 1.5 | –
323.15 K, x1 = 0.4998 | 730.81 ± 1.5 | –
323.15 K, x1 = 0.6005 | 726.72 ± 1.5 | –
323.15 K, x1 = 0.6974 | 723.59 ± 1.5 | –
323.15 K, x1 = 0.8 | 721.01 ± 1.5 | –
323.15 K, x1 = 0.8963 | 719.09 ± 1.5 | –
323.15 K, x1 = 1 | 718.11 ± 1.5 | –
328.15 K, x1 = 0.1003 | 758.02 ± 1.5 | 0.885 ± 0.011
328.15 K, x1 = 0.2009 | 746.49 ± 1.5 | 0.811 ± 0.01
328.15 K, x1 = 0.3004 | 738.04 ± 1.5 | 0.76 ± 0.0096
328.15 K, x1 = 0.3997 | 731.64 ± 1.5 | 0.723 ± 0.0092
328.15 K, x1 = 0.4998 | 726.68 ± 1.5 | 0.698 ± 0.0089
328.15 K, x1 = 0.6005 | 722.64 ± 1.5 | 0.681 ± 0.0088
328.15 K, x1 = 0.6974 | 719.57 ± 1.5 | 0.669 ± 0.0087
328.15 K, x1 = 0.8 | 717.05 ± 1.4 | 0.665 ± 0.0087
328.15 K, x1 = 0.8963 | 715.21 ± 1.4 | 0.669 ± 0.0088
328.15 K, x1 = 1 | 714.39 ± 1.4 | 0.692 ± 0.0092
333.15 K, x1 = 0.1003 | 753.7 ± 1.5 | 0.805 ± 0.01
333.15 K, x1 = 0.2009 | 742.18 ± 1.5 | 0.741 ± 0.0094
333.15 K, x1 = 0.3004 | 733.76 ± 1.5 | 0.698 ± 0.0088
333.15 K, x1 = 0.3997 | 727.41 ± 1.5 | 0.668 ± 0.0085
333.15 K, x1 = 0.4998 | 722.5 ± 1.5 | 0.648 ± 0.0083
333.15 K, x1 = 0.6005 | 718.52 ± 1.4 | 0.634 ± 0.0082
333.15 K, x1 = 0.6974 | 715.51 ± 1.4 | 0.625 ± 0.0081
333.15 K, x1 = 0.8 | 713.06 ± 1.4 | 0.623 ± 0.0082
333.15 K, x1 = 0.8963 | 711.3 ± 1.4 | 0.628 ± 0.0083
333.15 K, x1 = 1 | 710.68 ± 1.4 | 0.651 ± 0.0087
338.15 K, x1 = 0.1003 | 749.3 ± 1.5 | 0.734 ± 0.0092
338.15 K, x1 = 0.2009 | 737.8 ± 1.5 | 0.68 ± 0.0086
338.15 K, x1 = 0.3004 | 729.43 ± 1.5 | 0.645 ± 0.0082
338.15 K, x1 = 0.3997 | 723.12 ± 1.5 | 0.619 ± 0.0079
338.15 K, x1 = 0.4998 | 718.27 ± 1.4 | 0.604 ± 0.0077
338.15 K, x1 = 0.6005 | 714.36 ± 1.4 | 0.593 ± 0.0077
338.15 K, x1 = 0.6974 | 711.41 ± 1.4 | 0.586 ± 0.0076
338.15 K, x1 = 0.8 | 709.04 ± 1.4 | 0.586 ± 0.0077
338.15 K, x1 = 0.8963 | 707.37 ± 1.4 | 0.592 ± 0.0078
338.15 K, x1 = 1 | 706.95 ± 1.4 | 0.615 ± 0.0082
343.15 K, x1 = 0.1003 | 744.8 ± 1.5 | 0.672 ± 0.0084
343.15 K, x1 = 0.2009 | 733.33 ± 1.5 | 0.626 ± 0.0079
343.15 K, x1 = 0.3004 | 725.01 ± 1.5 | 0.596 ± 0.0076
343.15 K, x1 = 0.3997 | 718.77 ± 1.4 | 0.576 ± 0.0073
343.15 K, x1 = 0.4998 | 713.98 ± 1.4 | 0.563 ± 0.0072
343.15 K, x1 = 0.6005 | 710.14 ± 1.4 | 0.555 ± 0.0072
343.15 K, x1 = 0.6974 | 707.27 ± 1.4 | 0.551 ± 0.0072
343.15 K, x1 = 0.8 | 704.99 ± 1.4 | 0.552 ± 0.0072
343.15 K, x1 = 0.8963 | 703.43 ± 1.4 | 0.558 ± 0.0074
343.15 K, x1 = 1 | 703.22 ± 1.4 | 0.58 ± 0.0077
348.15 K, x1 = 0.1003 | 740.24 ± 1.5 | 0.617 ± 0.0078
348.15 K, x1 = 0.2009 | 728.8 ± 1.5 | 0.578 ± 0.0073
348.15 K, x1 = 0.3004 | 720.53 ± 1.4 | 0.553 ± 0.007
348.15 K, x1 = 0.3997 | 714.34 ± 1.4 | 0.537 ± 0.0068
348.15 K, x1 = 0.4998 | 709.64 ± 1.4 | 0.527 ± 0.0068
348.15 K, x1 = 0.6005 | 705.88 ± 1.4 | 0.522 ± 0.0067
348.15 K, x1 = 0.6974 | 703.09 ± 1.4 | 0.519 ± 0.0067
348.15 K, x1 = 0.8 | 700.9 ± 1.4 | 0.521 ± 0.0068
348.15 K, x1 = 0.8963 | 699.45 ± 1.4 | 0.528 ± 0.007
348.15 K, x1 = 1 | 699.47 ± 1.4 | 0.549 ± 0.0073
353.15 K, x1 = 0.1003 | 735.57 ± 1.5 | 0.568 ± 0.0071
353.15 K, x1 = 0.2009 | 724.18 ± 1.5 | 0.535 ± 0.0067
353.15 K, x1 = 0.3004 | 715.97 ± 1.4 | 0.515 ± 0.0065
353.15 K, x1 = 0.3997 | 709.86 ± 1.4 | 0.502 ± 0.0064
353.15 K, x1 = 0.4998 | 705.23 ± 1.4 | 0.495 ± 0.0063
353.15 K, x1 = 0.6005 | 701.57 ± 1.4 | 0.492 ± 0.0063
353.15 K, x1 = 0.6974 | 698.86 ± 1.4 | 0.49 ± 0.0064
353.15 K, x1 = 0.8 | 696.77 ± 1.4 | 0.492 ± 0.0064
353.15 K, x1 = 0.8963 | 695.46 ± 1.4 | 0.501 ± 0.0066
353.15 K, x1 = 1 | 695.72 ± 1.4 | 0.522 ± 0.007
358.15 K, x1 = 0.1003 | 730.81 ± 1.5 | 0.525 ± 0.0066
358.15 K, x1 = 0.2009 | 719.45 ± 1.4 | 0.497 ± 0.0063
358.15 K, x1 = 0.3004 | 711.32 ± 1.4 | 0.481 ± 0.0061
358.15 K, x1 = 0.3997 | 705.29 ± 1.4 | 0.471 ± 0.006
358.15 K, x1 = 0.4998 | 700.75 ± 1.4 | 0.466 ± 0.006
358.15 K, x1 = 0.6005 | 697.19 ± 1.4 | 0.465 ± 0.006
358.15 K, x1 = 0.6974 | 694.58 ± 1.4 | 0.463 ± 0.006
358.15 K, x1 = 0.8 | 692.62 ± 1.4 | 0.467 ± 0.0061
358.15 K, x1 = 0.8963 | 691.44 ± 1.4 | 0.476 ± 0.0063
358.15 K, x1 = 1 | 691.96 ± 1.4 | 0.497 ± 0.0066
363.15 K, x1 = 0.1003 | 725.93 ± 1.5 | 0.4864 ± 0.0061
363.15 K, x1 = 0.2009 | 714.64 ± 1.4 | 0.4635 ± 0.0058
363.15 K, x1 = 0.3004 | 706.59 ± 1.4 | 0.4506 ± 0.0057
363.15 K, x1 = 0.3997 | 700.67 ± 1.4 | 0.443 ± 0.0056
363.15 K, x1 = 0.4998 | 696.22 ± 1.4 | 0.4401 ± 0.0056
363.15 K, x1 = 0.6005 | 692.77 ± 1.4 | 0.4396 ± 0.0057
363.15 K, x1 = 0.6974 | 690.27 ± 1.4 | 0.4398 ± 0.0057
363.15 K, x1 = 0.8 | 688.42 ± 1.4 | 0.4438 ± 0.0058
363.15 K, x1 = 0.8963 | 687.41 ± 1.4 | 0.4531 ± 0.006
363.15 K, x1 = 1 | 688.18 ± 1.4 | 0.475 ± 0.0063

— the NIST ThermoML archive (doi:10.1021/acs.jced.6b00121)
